Laboratory results as given in publication PMC3961306, “Comparison of the Cancer Gene Targeting and Biochemical Selectivities of All Targeted Kinase Inhibitors Approved for Clinical Use” (PLoS ONE, 2014).

Key:
Assay in all cases: Kinase profiling in a biochemical assay panel (mobility shift assays and ELISA), %-inhibition at 1 μM; selectivity entropy
[1] = biological target: T1, panel of more than 300 wild-type and mutant kinases (313 kinase panel) (Homo sapiens, UniProt P51817)
T1 sequence (P51817 1-358): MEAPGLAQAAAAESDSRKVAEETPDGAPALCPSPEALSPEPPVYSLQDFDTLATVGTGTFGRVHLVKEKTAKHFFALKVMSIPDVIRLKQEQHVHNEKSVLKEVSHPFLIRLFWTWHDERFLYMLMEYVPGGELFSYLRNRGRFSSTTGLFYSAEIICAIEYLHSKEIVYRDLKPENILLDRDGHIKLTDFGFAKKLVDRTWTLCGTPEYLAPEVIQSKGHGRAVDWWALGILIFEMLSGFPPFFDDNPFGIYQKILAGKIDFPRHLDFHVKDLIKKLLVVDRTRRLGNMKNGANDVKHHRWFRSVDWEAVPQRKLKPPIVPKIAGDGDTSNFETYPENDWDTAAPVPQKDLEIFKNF

[2] = biological target: T2, panel of more than 300 wild-type and mutant kinases (313 kinase panel) (Homo sapiens, UniProt O15530)
T2 sequence (O15530 1-556): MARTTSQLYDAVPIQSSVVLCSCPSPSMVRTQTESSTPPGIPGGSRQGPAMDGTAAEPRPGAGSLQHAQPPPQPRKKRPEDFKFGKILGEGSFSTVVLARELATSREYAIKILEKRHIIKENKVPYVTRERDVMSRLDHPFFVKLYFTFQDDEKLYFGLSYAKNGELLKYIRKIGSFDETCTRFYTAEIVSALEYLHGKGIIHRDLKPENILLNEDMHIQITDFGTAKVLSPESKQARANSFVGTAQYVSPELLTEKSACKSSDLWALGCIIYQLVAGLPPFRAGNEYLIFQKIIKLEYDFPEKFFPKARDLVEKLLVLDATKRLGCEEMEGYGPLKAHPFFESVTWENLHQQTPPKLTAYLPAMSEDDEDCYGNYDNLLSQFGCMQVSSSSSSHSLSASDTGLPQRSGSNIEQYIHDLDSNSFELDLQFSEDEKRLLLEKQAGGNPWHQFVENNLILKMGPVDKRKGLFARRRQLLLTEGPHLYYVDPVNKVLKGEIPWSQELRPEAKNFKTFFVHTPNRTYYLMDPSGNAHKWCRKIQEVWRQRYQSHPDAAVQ

[3] = biological target: panel of more than 300 wild-type and mutant kinases (313 kinase panel) (Homo sapiens, UniProt Q9H2X6)
[4] = biological target: panel of more than 300 wild-type and mutant kinases (313 kinase panel) (Homo sapiens, UniProt Q13464)
[5] = biological target: T3, panel of more than 300 wild-type and mutant kinases (313 kinase panel) (Homo sapiens, UniProt P15735)
T3 sequence (P15735 1-406): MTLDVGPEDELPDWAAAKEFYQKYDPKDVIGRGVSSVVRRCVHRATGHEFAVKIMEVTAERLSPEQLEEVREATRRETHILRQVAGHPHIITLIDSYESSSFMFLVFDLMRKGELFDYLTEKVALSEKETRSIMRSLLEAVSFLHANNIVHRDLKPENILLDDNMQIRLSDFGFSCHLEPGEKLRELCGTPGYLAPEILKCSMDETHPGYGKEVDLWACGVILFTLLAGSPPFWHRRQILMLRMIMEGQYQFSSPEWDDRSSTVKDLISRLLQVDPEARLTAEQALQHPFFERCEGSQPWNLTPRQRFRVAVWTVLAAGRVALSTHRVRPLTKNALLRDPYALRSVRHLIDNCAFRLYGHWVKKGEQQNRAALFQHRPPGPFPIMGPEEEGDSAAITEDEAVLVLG

[6] = biological target: panel of more than 300 wild-type and mutant kinases (313 kinase panel) (Homo sapiens, UniProt P10721, D816V)
[7] = biological target: panel of more than 300 wild-type and mutant kinases (313 kinase panel) (Homo sapiens, UniProt Q13882)
[8] = biological target: panel of more than 300 wild-type and mutant kinases (313 kinase panel) (Homo sapiens, UniProt P42336)
[9] = biological target: panel of more than 300 wild-type and mutant kinases (313 kinase panel) (Homo sapiens, UniProt Q13554)
[10] = biological target: panel of more than 300 wild-type and mutant kinases (313 kinase panel) (Homo sapiens, UniProt P07949, Y791F)
[11] = kinase KIT(D816V), compound at 1 μM

| SMILES | %-inhibition of PRKX ([1]; kinase PRKX, 1 μM) | %-inhibition of PDK1 ([2]; kinase PDK1, 1 μM) | %-inhibition of HIPK2 ([3]; kinase HIPK2, compound at 1 μM) | %-inhibition of ROCK1 ([4]; kinase ROCK1, 1 μM) | %-inhibition of PHKG2 ([5]; kinase PHKG2, 1 μM) | %-inhibition of KIT(D816V) [6, 11] | %-inhibition, BRK ([7]; kinase BRK, 1 μM compound) | %-inhibition of PIK3CA/PIK3R1 ([8]; kinase PIK3CA/PIK3R1, 1 μM) | %-inhibition, CaMK2β ([9]; kinase CaMK2β, 1 μM compound) | %-inhibition of RET(Y791F) ([10]; kinase RET(Y791F), 1 μM) | %-inhibition of PIK3CA/PIK3R1 ([8]; 1 µM) | %-inhibition of PRKX ([1]; 1 µM) | %-inhibition of PDK1 ([2]; 1 µM) | %-inhibition of HIPK2 ([3]; 1 µM) | %-inhibition, CaMK2β ([9]; 1 µM) | %-inhibition of ROCK1 ([4]; 1 µM) | %-inhibition of PHKG2 ([5]; 1 µM) | %-inhibition of KIT(D816V) ([6]; 1 µM) | %-inhibition of RET(Y791F) ([10]; 1 µM) | %-inhibition, BRK ([7]; 1 µM) |
| --- | --- | --- | --- | --- | --- | --- | --- | --- | --- | --- | --- | --- | --- | --- | --- | --- | --- | --- | --- | --- |
| C[C@@H](Oc1cc(-c2cnn(C3CCNCC3)c2)cnc1N)c1c(Cl)ccc(F)c1Cl [crizotinib] | -7% | -5% | -6.53% | 3.39% | 10% | 21% | 15% |  |  |  |  |  |  |  |  |  |  |  |  |  |
| CC(C)(C)c1nc(-c2cccc(NS(=O)(=O)c3c(F)cccc3F)c2F)c(-c2ccnc(N)n2)s1 [dabrafenib] | -1.55% | -5.38% | 42% |  | 2% | 9% | 98% | 4.42% | -0.277% | 36% |  |  |  |  |  |  |  |  |  |  |
| COc1cc2c(Nc3ccc(Br)cc3F)ncnc2cc1OCC1CCN(C)CC1 [vandetanib] | -5.69% | -4.37% | -11% | -0.226% | 19% |  | 100% | 23% | -4.23% |  |  |  |  |  |  |  |  |  |  |  |
| O=S(=O)(c1cccc2cnccc12)N1CCCNCC1 [fasudil] | 86% | -2.83% | -1.86% | 83% | 4% | 4.75% | -6% | -7% | 2.58% | 1% |  |  |  |  |  |  |  |  |  |  |
| C#Cc1cccc(Nc2ncnc3cc(OCCOC)c(OCCOC)cc23)c1 [erlotinib] |  |  |  |  |  |  |  |  |  |  | 11% | 2% | 3% | 10% | -6% | 1.9% | 4% | 32% | 70% | 47% |
| COc1cc2nccc(Oc3ccc(NC(=O)C4(C(=O)Nc5ccc(F)cc5)CC4)cc3)c2cc1OC [cabozantinib] | -2.42% | -7% | 60% | 1.28% | -0.305% | 23% |  | 48% | -4% |  |  |  |  |  |  |  |  |  |  |  |
| Cc1ccc(C(=O)Nc2ccc(CN3CCN(C)CC3)c(C(F)(F)F)c2)cc1C#Cc1cnc2cccnn12 [ponatinib] | 26% | -5% |  | 39% |  |  | 97% | 45% |  | 102% |  |  |  |  |  |  |  |  |  |  |
| CCCS(=O)(=O)Nc1ccc(F)c(C(=O)c2c[nH]c3ncc(-c4ccc(Cl)cc4)cc23)c1F [vemurafenib] | -3.45% | -4% | -5% | 1.28% | -4.37% | 17% | 98% | 24% | -6.64% | 30% |  |  |  |  |  |  |  |  |  |  |
| CCN(CC)CCNC(=O)c1c(C)[nH]c(/C=C2\C(=O)Nc3ccc(F)cc32)c1C [sunitinib] |  |  |  | 9% |  |  |  |  |  |  |  |  |  |  |  |  |  |  |  |  |
| Cc1cn(-c2cc(NC(=O)c3ccc(C)c(Nc4nccc(-c5cccnc5)n4)c3)cc(C(F)(F)F)c2)cn1 [nilotinib] | 6% | -4.33% | 16% |  | -9% |  | 75% | 16% |  |  |  |  |  |  | -21% | -17% |  | 43% | 16% |  |
| CS(=O)(=O)CCNCc1ccc(-c2ccc3ncnc(Nc4ccc(OCc5cccc(F)c5)c(Cl)c4)c3c2)o1 [lapatinib] | 0.493% |  | 1.46% | -2.62% |  |  |  |  |  |  | -9% |  | -2.71% |  | -5% |  | 0.269% | -3% | -5% | 63% |
| CNC(=O)c1cc(Oc2ccc(NC(=O)Nc3ccc(Cl)c(C(F)(F)F)c3)c(F)c2)ccn1 [regorafenib] | -5.52% | -3% | 78% | 11% | -8% | 40% | 20% | 41% | -9% |  |  |  |  |  |  |  |  |  | 102% |  |
| Cc1nc(Nc2ncc(C(=O)Nc3c(C)cccc3Cl)s2)cc(N2CCN(CCO)CC2)n1 [dasatinib] |  |  | 6% |  |  |  |  |  | -6% |  |  |  |  |  |  |  |  |  |  |  |
| Cc1ccc(Nc2nccc(N(C)c3ccc4c(C)n(C)nc4c3)n2)cc1S(N)(=O)=O [pazopanib] | -1.14% | -0.284% | 5.51% | -1.24% | 1% | 87% | 70% | 45% | -2.29% | 94% |  |  |  |  |  |  |  |  |  |  |
| N#CC[C@H](C1CCCC1)n1cc(-c2ncnc3[nH]ccc23)cn1 [ruxolitinib] | 16% | -3.16% |  |  | 18% | 36% | -4% | 42% |  |  |  |  |  | 9% | 22% | 66% |  |  |  |  |
| COc1cc(Nc2c(C#N)cnc3cc(OCCCN4CCN(C)CC4)c(OC)cc23)c(Cl)cc1Cl [bosutinib] | -4.31% | -4.64% |  | 1.43% |  | 78% | 35% | 37% |  | 93% |  |  |  |  |  |  |  |  |  |  |
